From publication PMC9973354 (mBio, 2022)

Columns and labels:
Assay type in all cases: cell-based, Pseudomonas aeruginosa
Settings in all cases: 10:90 + 2% arabinose
[1] = test system: PA14 ΔfpvA ΔfpvB ΔfiuA ΔfoxA pHERD20T-fpvB Y432A; assay: Growth of quadruple mutant expressing FpvB Y432A
Procedure: (§1) Site-directed mutagenesis was used to confirm the docking predictions and to define the molecular determinants for ligand uptake through FpvB (Fig. 4C). We generated 17 single amino acid substitutions in FpvB and expressed each of them in trans in the quadruple ΔfpvA ΔfpvB ΔfiuA ΔfoxA mutant. Their ability to complement growth of the mutant in the presence of ferrichrome and ferrioxamine B and to restore TS susceptibility was assessed. […] The mutant transporters were tagged with a C-terminal FLAG tag to evaluate expression levels. FLAG-tagged FpvB mutants had WT levels of expression except for Y216T and W347V, which were expressed at 140% and 25% of WT, respectively.
(§2) The ΔfpvA ΔfpvB ΔfiuA ΔfoxA mutant was complemented with WT fpvA, fpvB, fiuA, and foxA in trans as controls (Fig. 4E).
(§3) MIC assays were conducted as previously described ([13], [14]). Overnight cultures were grown in LB from a glycerol stock at 37°C with shaking (200 rpm). Subcultures in 10:90 (1:100 dilution) were cultured for 4 h. Cells were adjusted to an optical density at 600 nm (OD600) of 0.1/500 in 10:90. All compounds were serially diluted 2-fold in dimethyl sulfoxide (DMSO) or H2O at 75× the final concentration. […] The next day, the OD600 was determined with a plate reader (Thermo Scientific) and normalized to percent of growth of the vehicle control after subtracting the OD600 from blank media.

[2] = test system: PA14 ΔfpvA ΔfpvB pHERD20T-fpvB; assay: Checkerboard assay TS and siderophores, FpvB expressed
Source text: We investigated this hypothesis by treating the ΔfpvA ΔfpvB mutant complemented with fpvA or fpvB with TS and pyoverdine-Fe^3+. If pyoverdine competes with TS for the same binding site in the transporter, a reduction in TS susceptibility would be expected, as competition would decrease entry of the antibiotic into the cell. TS susceptibility decreased >8-fold with increasing concentrations of pyoverdine-Fe^3+ when FpvA was expressed (see Fig. S2A in the supplemental material).
Supplementary file : FIG S2 Checkerboard assays of the PA14 ΔfpvA ΔfpvB strain complemented with fpvA and fpvB in trans with TS and siderophores. […] Checkerboards of the PA14 ΔfpvA ΔfpvB pHERD20T-fpvB strain with TS and enterobactin (G), ferrioxamine E (H), and arthrobactin (I). Results are averaged from three independent biological replicates. Cells in the assay were grown in 10:90 + 2% arabinose. Download FIG S2, EPS file, 2.2 MB.
Checkerboards (8 rows by 8 columns) were conducted as previously described in a 96-well plate (Nunc) ([13], [14]). TS at 75× the final concentration dissolved in DMSO was added in columns from bottom to top in increasing concentrations. […] The next day, the OD600 was determined with a plate reader (Thermo Scientific) and normalized to percent of growth of the vehicle control (DMSO) after subtracting the OD600 from blank media.

[3] = test system: PA14 ΔfpvA ΔfpvB ΔfiuA ΔfoxA pHERD20T; assay: Growth of quadruple mutant with empty vector
Procedure: as §1, §2, §3

SMILES: CC(=O)N(O)CCCCCNC(=O)CCC(=O)N(O)CCCCCNC(=O)CCC(=O)N(O)CCCCCN [ferrioxamine B]
- growth in the presence of siderophore [1]: prevented growth
- effect of siderophore on TS susceptibility [2]: antagonized TS susceptibility
- growth in the presence of siderophore [3]: inhibited
